Data reported in article PMC11116543, “Computer-aided pattern scoring – A multitarget dataset-driven workflow to predict ligands of orphan targets” (Scientific Data, 2024).
Read-outs that look alike come from different tables or passages of the source.

Assays:
[1] = tested on: ABCB1, ABCC1, and ABCG2; assay: Specificity screen against other ABC transporters: calcein AM (A2780/ADR), daunorubicin (H69AR) and pheophorbide A (MDCK II BCRP) assays; format: cell-based; settings: 10 µM compound; Supplementary Fig. S3; result in words
Source text: Apart from the high hit rate, potency, and structural diversity of the output molecules, it is important to note that the multitarget dataset cross-annotated the molecular-structural and physicochemical information of ligands on a multitude of targets. In order to assess its ABCA-specificity, we tested the hit compounds 4, 7, 8, 11, 13, 28, 29, 30, 32, 41, 46, 47, 50, 58, and 59 against ABC transporters of three different subfamilies, namely ABCB1, ABCC1, and ABCG2[40]. […] On the other hand, it is unlikely that the compounds bear selectivity toward ABCA1, which can be seen as opportunity to explore other ABCA transporters as well, and warrants future investigations.
Suppl ementary Fig. 3 Biological Assessment of hi t compounds 4 , 7, 8 , 11 , 13 , 28, 29, 30, 32,
cal ce i n AM (a), daunorubicin (b), and pheophorbide A (c) assays using ABCB1-expressing
A 2780/ A DR (a), A BCC 1- expressi ng H 69A R (b), and ABCG2-expressing MDCK II BCRP (c) cells as
2. Möhl e, L. , et al . ABC Transporter C1 Prevents Dimethyl Fumarate from Targeting
Alzheimer's Disease. Biology (Basel) 12 ( 7) , 932,
(1 picture or pasted object on this page, not shown here)

[2] = target: ABCA1 (Mus musculus, UniProt P41233); assay: cell-based
[3] = IC50, full concentration-effect curves, Fig. 4(b), mean ± SEM of at least three independent experiments, J774A.1 cells

ABCA1, sequence (P41233 whole entry): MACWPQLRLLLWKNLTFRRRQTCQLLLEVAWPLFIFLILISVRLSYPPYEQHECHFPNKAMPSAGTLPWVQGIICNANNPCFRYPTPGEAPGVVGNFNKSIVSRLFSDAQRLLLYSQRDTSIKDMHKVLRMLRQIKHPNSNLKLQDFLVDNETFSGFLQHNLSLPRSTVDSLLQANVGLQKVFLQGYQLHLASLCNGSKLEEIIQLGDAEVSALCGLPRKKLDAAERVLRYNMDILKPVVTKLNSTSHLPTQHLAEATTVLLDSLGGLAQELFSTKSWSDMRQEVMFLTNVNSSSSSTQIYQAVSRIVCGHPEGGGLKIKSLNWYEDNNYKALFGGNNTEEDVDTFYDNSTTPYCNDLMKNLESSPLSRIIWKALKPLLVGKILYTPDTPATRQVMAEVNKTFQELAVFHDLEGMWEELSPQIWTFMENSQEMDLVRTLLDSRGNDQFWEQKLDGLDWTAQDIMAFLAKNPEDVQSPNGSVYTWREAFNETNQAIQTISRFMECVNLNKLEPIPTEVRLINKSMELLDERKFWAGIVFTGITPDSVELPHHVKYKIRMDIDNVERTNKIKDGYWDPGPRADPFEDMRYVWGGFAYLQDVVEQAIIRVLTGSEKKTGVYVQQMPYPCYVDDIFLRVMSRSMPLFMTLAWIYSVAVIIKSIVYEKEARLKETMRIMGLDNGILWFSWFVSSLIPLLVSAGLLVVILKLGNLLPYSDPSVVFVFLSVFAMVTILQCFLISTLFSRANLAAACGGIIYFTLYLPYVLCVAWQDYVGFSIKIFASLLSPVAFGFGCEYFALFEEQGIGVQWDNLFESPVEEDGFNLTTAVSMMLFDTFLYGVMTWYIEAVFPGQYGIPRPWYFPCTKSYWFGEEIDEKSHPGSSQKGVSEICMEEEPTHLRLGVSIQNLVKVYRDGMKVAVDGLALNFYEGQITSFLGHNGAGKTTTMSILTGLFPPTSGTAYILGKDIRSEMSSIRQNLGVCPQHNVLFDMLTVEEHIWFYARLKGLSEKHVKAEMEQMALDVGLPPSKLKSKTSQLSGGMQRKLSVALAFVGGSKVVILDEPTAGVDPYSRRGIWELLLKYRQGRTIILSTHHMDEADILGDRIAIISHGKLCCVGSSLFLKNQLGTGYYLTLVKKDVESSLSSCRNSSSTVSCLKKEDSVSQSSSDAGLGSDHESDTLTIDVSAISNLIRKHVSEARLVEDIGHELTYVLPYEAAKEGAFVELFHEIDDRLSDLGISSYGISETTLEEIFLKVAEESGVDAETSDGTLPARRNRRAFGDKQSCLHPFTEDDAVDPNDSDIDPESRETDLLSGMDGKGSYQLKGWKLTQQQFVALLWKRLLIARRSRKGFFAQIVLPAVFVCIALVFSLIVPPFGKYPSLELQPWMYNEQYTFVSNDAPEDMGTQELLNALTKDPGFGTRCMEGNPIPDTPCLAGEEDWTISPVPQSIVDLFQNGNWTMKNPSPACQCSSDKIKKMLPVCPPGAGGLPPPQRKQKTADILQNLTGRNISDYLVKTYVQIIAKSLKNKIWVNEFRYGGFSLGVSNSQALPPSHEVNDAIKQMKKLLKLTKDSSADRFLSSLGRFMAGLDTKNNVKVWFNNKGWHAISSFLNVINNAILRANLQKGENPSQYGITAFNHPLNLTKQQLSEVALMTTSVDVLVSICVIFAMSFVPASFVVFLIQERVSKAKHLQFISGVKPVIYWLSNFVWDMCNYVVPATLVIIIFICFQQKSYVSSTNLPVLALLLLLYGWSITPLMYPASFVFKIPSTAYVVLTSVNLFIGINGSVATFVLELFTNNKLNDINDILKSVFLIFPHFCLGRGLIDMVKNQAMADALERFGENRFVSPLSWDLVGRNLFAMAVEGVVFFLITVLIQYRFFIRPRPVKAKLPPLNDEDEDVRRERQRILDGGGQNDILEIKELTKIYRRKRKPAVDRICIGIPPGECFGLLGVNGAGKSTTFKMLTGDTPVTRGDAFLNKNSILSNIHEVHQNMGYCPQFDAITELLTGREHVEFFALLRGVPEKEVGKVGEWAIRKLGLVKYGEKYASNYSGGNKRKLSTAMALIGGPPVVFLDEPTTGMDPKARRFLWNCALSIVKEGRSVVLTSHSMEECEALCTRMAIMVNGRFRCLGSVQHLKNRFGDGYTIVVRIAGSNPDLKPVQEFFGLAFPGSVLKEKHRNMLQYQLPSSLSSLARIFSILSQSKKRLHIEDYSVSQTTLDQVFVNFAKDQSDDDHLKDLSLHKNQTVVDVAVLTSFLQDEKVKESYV

IC50 [2] [µM] | IC50 [2, 3] [µM] | SMILES | inhibition of other ABC transporters (ABCB1, ABCC1, ABCG2) [1]
5.08 ± 0.62 | 8.76 ± 1.04 | COCCc1ccc(OCC(O)CNC(=O)C2CC(F)(F)CCC2(C)C)cc1 (centres unmarked) [Compound 11] | least inhibition of other ABC transporters
21.5 ± 3.4 | 18.9 ± 2.3 | COc1cc(OC)c2cc(C(=O)N3C[C@@H](O)CC4(CCCC4)C3)[nH]c2c1OC [Compound 47] | 
9.12 ± 2.9 | 21.2 ± 0.6 | COc1ccc2c(N3C[C@H](O)[C@H](O)CC4(CCCC4)C3)ncnc2c1F [Compound 59] | significant inhibition against either two or three of the assessed transporters
